From patent US8969345B2, “Dibenzooxepin derivative” (Kyowa Hakko Kirin Co., Ltd., priority 2011, dated 2015)

What was measured:
[1] = target: T1, GAL4-PPAR γ chimeric nuclear receptor (human PPAR γ ligand binding domain) (Homo sapiens, UniProt P37231); assay: PPAR γ transactivation assay by transient gene transfer (GAL4-PPAR γ chimeric receptor, luciferase reporter, HEK293EBNA cells); format: cell-based; conditions: concentration showing 50% of efficacy (maximum activity rate relative to pioglitazone = 100%), 24 hr
T1 construct: expressed in transfected cells; host or cells: HEK293EBNA cells, transient transfection with SuperFect
T1 sequence (P37231 174-475 isoform P37231-2): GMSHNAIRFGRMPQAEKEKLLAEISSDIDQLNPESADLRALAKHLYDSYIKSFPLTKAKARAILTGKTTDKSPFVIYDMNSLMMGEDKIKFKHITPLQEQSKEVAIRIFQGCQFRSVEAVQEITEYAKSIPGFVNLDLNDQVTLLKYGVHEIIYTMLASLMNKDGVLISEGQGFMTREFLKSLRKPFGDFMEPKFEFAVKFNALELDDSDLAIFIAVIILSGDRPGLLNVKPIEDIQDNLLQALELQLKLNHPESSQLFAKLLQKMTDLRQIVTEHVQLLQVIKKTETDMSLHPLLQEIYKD
Experimental: The agonist activity of the test compound to PPAR γ was determined by a transactivation assay method using a chimeric nuclear receptor of a DNA binding region of a yeast transcription factor GAL4 and a PPAR γ ligand binding region. Specifically, the PPAR γ agonist activity of the test compound was evaluated by the following method based on the method of Lehmann et al. (J Biol. Chem., 1995, vol. 270, page 12953).
HEK293EBNA cells cultured in Dulbecco's Modified Eagle medium (Invitrogen) containing 10 v/v % fetal bovine serum (Invitrogen) were used. 30 mL of the above-mentioned cells (density: 1×10^5 cells/mL) were inoculated in a […] (Iwaki Glass), and cultured overnight. Using SuperFect Transfection Reagent (QIAGEN), a plasmid expressing a GAL4-PPAR γ chimeric nuclear receptor fusing 174-475 amino acids, which are human PPAR γ ligand binding domain, and 1-147 amino acids, which are GAL4 DNA binding domain, and a reporter plasmid expressing a GAL4 responsive luciferase were transiently introduced into the cells at a proportion of 4:1. After 5 hr from transfection, the cells were detached from the culture dish, and the detached cells (density: 2×10^4 cells/mL) were inoculated by 100 μL in each well of a 96 well white plate (SUMITOMO BAKELITE), and cultured overnight. The medium was removed, the test compound diluted in various concentrations with serum-free Dulbecco's Modified Eagle medium was added by 100 μL, and the mixture was reacted under a 5% carbon dioxide gas stream (5% CO2) at 37° C. for 24 hr. On the other hand, as a positive control, 10 μmol/L of pioglitazone (100 μL) was added, and the mixture was reacted under a 5% carbon dioxide gas stream (5% CO2) at 37° C. for 24 hr. As a substrate of luciferase, 100 μL of Steady-Glo (Promega) was added to each well and the mixture was thoroughly stirred. Immediately thereafter, the chemical luminescence due to luciferase was measured using TopCount NTX (Packard).
The agonist activity (activity rate (%)) of the test compound to PPAR γ was calculated according to the following formula, as a relative activity when the agonist activity on addition of pioglitazone ([…]) was 100%.

[2] = Metabolic stability evaluation in human liver microsome; format: in vitro ADME; conditions: liver microsomes, pH 7.4; human liver microsome 0.2 mg/mL protein, test compound 1 μmol/L, β-NADPH, 37° C., 30 min; average of two samples; read-out: hCLint (converted)
Experimental: Human liver microsome (pool of 50 donors) was purchased from XenoTech. A reaction mixture containing phosphate buffer (100 mmol/L, pH 7.4), ethylenediamine tetraacetic acid (0.1 mmol/L), magnesium chloride (6 mmol/L), human liver microsome (0.2 mg/mL protein) and test compound (1 μmol/L) was prepared. The reaction mixture was preincubated at 37° C. for 5 min, β-NADPH (1 mmol/L) was added and the mixture was incubated at 37° C. for 30 min. The protein was removed with acetonitrile from the sample after the reaction and the sample was measured by LC-MS/MS. The ratio of the organic solvent in the reaction mixture was set to about 0.5%, and the reaction was performed in 2 samples.
The elimination rate constant (ke) was calculated from the linear regression of the logarithm plot of the residual ratio of the test compound and at 30 min after the reaction, and the liver inherent clearance (Cint) was calculated by the following formula.
[formula] ke: elimination rate constant (1/h) a: concentration (mg/mL) of liver microsome in the reaction mixture b: liver microsome amount per liver unit weight (32.3 mg/g liver) c: liver weight per unit body weight (25.7 g liver/kg body weight) Each test compound was tested in two samples, and the average thereof was calculated.

Row | EC50 [1] | CLint scaled at 1 μmol/L [2] | Compound
1 | 0.0042 µM | 2.2 L/h/kg | C/C(=C1/c2ccc(Cc3c(C4CC4)nc4c(Cl)cccn34)cc2COc2cc(F)ccc21)c1noc(=O)[nH]1 [Compound 8a, (E)-3-(1-{8-[(8-chloro-2-cyclopropylimidazo[1,2-a]pyridin-3-yl)methyl]-3-fluorodibenzo[b,e]oxepin-11(6H)-ylidene}ethyl)-1,2,4-oxadiazol-5(4H)-one]
2 | 0.0085 µM | 1.3 L/h/kg | C/C(=C1/c2ccc(Cn3c(C4CCC4)nc4nc(F)ccc43)cc2COc2cc(F)ccc21)c1noc(=O)[nH]1 [Compound 3i, (E)-3-(1-{8-[(2-cyclobutyl-5-fluoro-1H-imidazo[4,5-b]pyridin-1-yl)methyl]-3-fluorodibenzo[b,e]oxepin-11(6H)-ylidene}ethyl)-1,2,4-oxadiazol-5(4H)-one]
3 | 0.0399 µM | 5.3 L/h/kg | C/C(=C1/c2ccc(Cn3c(C(C)C)nc(Cl)c3Cl)cc2COc2cc(F)ccc21)c1noc(=O)[nH]1 [Compound 13c, (E)-3-(1-{8-[(4,5-dichloro-2-isopropyl-1H-imidazol-1-yl)methyl]-3-fluorodibenzo[b,e]oxepin-11(6H)-ylidene}ethyl)-1,2,4-oxadiazol-5(4H)-one]
4 | 0.0119 µM | 1.5 L/h/kg | [2H]C([2H])([2H])Oc1cccn2c(Cc3ccc4c(c3)COc3cc(F)ccc3/C4=C(\C)c3noc(=O)[nH]3)c(C3CC3)nc12 [Compound 9h, (E)-3-[1-(8-{[2-cyclopropyl-8-(methoxy-d3)-imidazo[1,2-a]pyridin-3-yl]methyl}-3-fluorodibenzo[b,e]oxepin-11(6H)-ylidene)ethyl]-1,2,4-oxadiazol-5(4H)-one]
5 | 0.0127 µM | 3.9 L/h/kg | C/C(=C1/c2ccc(Cc3c(C4CC4)nc4cc(F)ccn34)cc2COc2cc(F)ccc21)c1noc(=O)[nH]1 [Compound 10c, (E)-3-(1-{8-[(2-cyclopropyl-7-fluoroimidazo[1,2-a]pyridin-3-yl)methyl]-3-fluorodibenzo[b,e]oxepin-11(6H)-ylidene}ethyl)-1,2,4-oxadiazol-5(4H)-one]
6 | 0.0117 µM | 1.9 L/h/kg | COCc1nc2ccccc2n1Cc1ccc2c(c1)COc1cc(F)ccc1/C2=C(\C)c1noc(=O)[nH]1 [Compound 1b, (E)-3-[1-(3-fluoro-8-{[2-(methoxymethyl)-1H-benzo[d]imidazol-1-yl]methyl}dibenzo[b,e]oxepin-11(6H)-ylidene)ethyl]-1,2,4-oxadiazol-5(4H)-one]
7 | 0.0549 µM | 4.7 L/h/kg | CCCc1nc2ccccc2n1Cc1ccc2c(c1)COc1cc(F)ccc1/C2=C(/c1noc(=O)[nH]1)C1CC1 [Compound 4g, (E)-3-(cyclopropyl{3-fluoro-8-[(2-propyl-1H-benzo[d]imidazol-1-yl)methyl]dibenzo[b,e]oxepin-11(6H)-ylidene}methyl)-1,2,4-oxadiazol-5(4H)-one]
8 | 0.0064 µM | 6.1 L/h/kg | C/C(=C1/c2ccc(Cc3c(C4CC4)nc4cc(Cl)ccn34)cc2COc2cc(F)ccc21)c1noc(=O)[nH]1 [Compound 10a, (E)-3-(1-{8-[(7-chloro-2-cyclopropylimidazo[1,2-a]pyridin-3-yl)methyl]-3-fluorodibenzo[b,e]oxepin-11(6H)-ylidene}ethyl)-1,2,4-oxadiazol-5(4H)-one]
9 | 0.209 µM | 3.9 L/h/kg | CCCc1nc(C)nc(N2CCC2)c1Cc1ccc2c(c1)COc1cc(F)ccc1/C2=C(\C)c1noc(=O)[nH]1 [Compound 13g, (E)-3-[1-(8-{[4-(azetidin-1-yl)-2-methyl-6-propylpyrimidin-5-yl]methyl}-3-fluorodibenzo[b,e]oxepin-11(6H)-ylidene)ethyl]-1,2,4-oxadiazol-5(4H)-one]
10 | 0.0456 µM | 0.44 L/h/kg | [2H]C([2H])([2H])Oc1cccc2c1nc(COC)n2Cc1ccc2c(c1)COc1cc(F)ccc1/C2=C(\C)c1noc(=O)[nH]1 [Compound 2a, (E)-3-[1-(3-fluoro-8-{[4-(methoxy-d3)-2-(methoxymethyl)-1H-benzo[d]imidazol-1-yl]methyl}dibenzo[b,e]oxepin-11(6H)-ylidene)ethyl]-1,2,4-oxadiazol-5(4H)-one]
11 | 0.0115 µM | 2 L/h/kg | CCCc1nc2ccccc2n1Cc1ccc2c(c1)COc1cc(F)c(F)cc1/C2=C(\C)c1noc(=O)[nH]1 [Compound 6a, (E)-3-(1-{2,3-difluoro-8-[(2-propyl-1H-benzo[d]imidazol-1-yl)methyl]dibenzo[b,e]oxepin-11(6H)-ylidene}ethyl)-1,2,4-oxadiazol-5(4H)-one]
12 | 0.083 µM | 0.68 L/h/kg | C/C(=C1/c2ccc(Cc3c(C4CCOC4)nc4cc(F)ccn34)cc2COc2cc(F)ccc21)c1noc(=O)[nH]1 (stereo not shown) [Compound 14j, (E)-3-(1-{8-[(7-fluoro-2-(tetrahydrofuran-3-yl)imidazo[1,2-a]pyridin-3-yl)methyl]-3-fluorodibenzo[b,e]oxepin-11(6H)-ylidene}ethyl)-1,2,4-oxadiazol-5(4H)-one]
13 | 0.0188 µM | 4.7 L/h/kg | O=c1[nH]c(/C(=C2\c3ccc(Cc4c(C5CC5)nc5c(Cl)cccn45)cc3COc3cc(F)ccc32)C2CC2)no1 [Compound 12a, (E)-3-({8-[(8-chloro-2-cyclopropylimidazo[1,2-a]pyridin-3-yl)methyl]-3-fluorodibenzo[b,e]oxepin-11(6H)-ylidene}(cyclopropyl)methyl)-1,2,4-oxadiazol-5(4H)-one]
14 | 0.038 µM | 2.2 L/h/kg | CC/C(=C1/c2ccc(Cn3c(COC)nc4ccccc43)cc2COc2cc(F)ccc21)c1noc(=O)[nH]1 [Compound 4l, (E)-3-[1-(3-fluoro-8-{[2-(methoxymethyl)-1H-benzo[d]imidazol-1-yl]methyl}dibenzo[b,e]oxepin-11(6H)-ylidene)propyl]-1,2,4-oxadiazol-5(4H)-one]
15 | 0.0074 µM | 3.2 L/h/kg | CCCc1nc2ccccc2n1Cc1ccc2c(c1)COc1cc(F)ccc1/C2=C(\C)c1noc(=O)[nH]1 [Compound 1a, (E)-3-(1-{3-fluoro-8-[(2-propyl-1H-benzo[d]imidazol-1-yl)methyl]dibenzo[b,e]oxepin-11(6H)-ylidene}ethyl)-1,2,4-oxadiazol-5(4H)-one]
16 | 0.304 µM | 2.2 L/h/kg | C#Cc1ccn2c(Cc3ccc4c(c3)COc3cc(F)ccc3/C4=C(\C)c3noc(=O)[nH]3)c(C)nc2c1 [Compound 14h, (E)-3-(1-{8-[(7-ethynyl-2-methylimidazo[1,2-a]pyridin-3-yl)methyl]-3-fluorodibenzo[b,e]oxepin-11(6H)-ylidene}ethyl)-1,2,4-oxadiazol-5(4H)-one]
17 | 0.0159 µM | 1.8 L/h/kg | C/C(=C1/c2ccc(Cc3c(C4CC4)nc4c(C)nccn34)cc2COc2cc(F)ccc21)c1noc(=O)[nH]1 [Compound 14a, (E)-3-(1-{8-[(2-cyclopropyl-8-methylimidazo[1,2-a]pyrazin-3-yl)methyl]-3-fluorodibenzo[b,e]oxepin-11(6H)-ylidene}ethyl)-1,2,4-oxadiazol-5(4H)-one]
